Where a name gives a salt, the structure may show the parent alone. Read-outs that look alike come from different tables or passages of the source.
What was measured:
mice [1] = test: Motor activity in mice (activity meters with photoelectric cells); format: in vivo; conditions: comparison of isomers; 32 mg/kg orally; in particular stimulant action
Procedure: The motor activity was determined with the aid of activity meters having photoelectric cells (Boissier and Simon, Arch. int. Pharmacodyn. 1965, 158, 212-221). A minimum of 10 animals was always used per batch.
The mice are placed in the activity meter just after the oral or intraperitoneal administration of the product acccording to the invention, obtained in accordance with Example I. The motor activity is measured as from the introduction into the activity meter up to the 60th minute. The counters are read after 30 minutes, then reset to 0 and read every 10 minutes for 30 minutes.

rats [2] = test: Influence of pimozide on the stereotypies caused in rats; format: in vivo; conditions: pimozide 1 mg.kg^-1 i.p. 30 min before Example III 8 mg.kg^-1 i.p.
Procedure: (§1) The tests were carried out on batches of 6 rats for each dose; immediately after the oral or intraperitoneal administration, the animals are placed in individual, transparent plastic 20×10×10 cm boxes provided with a pierced stainless steel lid. The stereotyped movements are rated from 0 to 3, in accordance with the method described by Simon and Chermat (J. Pharmacol. (Paris), 1972, 3, 235-238) every 10 minutes until they disappear in all the animals. The detailed curves are plotted and the surface area of the curve is calculated as described in the above reference.
Research into the antagonistic effects of the stereotypies caused in rats by the medicament according to the invention
(a) Influence of pimozide
At time 0, pimozide (1 mg.kg^-1) or distilled water is administered intraperitoneally; after 30 minutes, all the animals receive, by intraperitoneal administration, the medicament according to the invention, obtained in accordance with Example III (8 mg.kg^-1). The stereotypies are assessed as described above. The surface area of the curve of the stereotypies is calculated.

mice [3] = test: Anti-reserpine activity in mice (reserpine hypothermia); format: in vivo; conditions: Table IIb, reserpine 2.5 mg.kg^-1 i.p. 4 h before
Procedure: Anti-reserpine activity in mice
At time 0, the mice receive reserpine (2.5 mg.kg^-1) by intraperitoneal administration.
After 4 hours, when the hypothermia is significant (30 to 31°C.), the substance to be studied is administered intraperitoneally or orally. The rectal temperature is measured, using a probe, carrying a thermoelectric couple, inserted to a constant depth, every 30 minutes for 2 hours.

mice [4] = test: Action on the toxicity of yohimbine to mice; format: in vivo; conditions: yohimbine hydrochloride 25 mg.kg^-1 s.c.
Procedure: Action on the toxicity of yohimbine to mice
At time 0, the mice receive, by oral administration, either distilled water or the medicament according to the invention; after 30 minutes, yohimbine hydrochloride (25 mg.kg^-1) is administered subcutaneously to the mice. The mortality is followed every hour for 4 hours and then recorded after 24 hours.

[5] = Determination of the acute toxicity to mice (BEHRENS and KARBER); conditions: mouse, in vivo
Procedure: All the experiments reported below were carried out on male rats having a weight of between 170 and 220 g (Wistar AF strain) and male mice having a weight of between 18 and 23 g (Swiss NMRI strain), unless otherwise stated in the following text.
Determination of the acute toxicity to mice
Method used: BEHRENS and KARBER

mice [6] = test: Anti-oxotremorine activity in mice (hypothermia induced by oxotremorine); format: in vivo; conditions: at the doses studied, oral or intraperitoneal
Procedure: Anti-oxotremorine activity in mice
At time 0, the mice receive oxotremorine (0.5 mg.kg^-1) by intraperitoneal administration; after 30 minutes, either distilled water or the medicament according to the invention, obtained in accordance with Example I, is administered to the mice intraperitoneally or orally.
The mice are then observed and the trembling is rated from 0 to 3 as a function of its intensity, every 10 minutes for 30 minutes. Moreover, the existence of peripheral symptoms (tears, hypersialosis and defections) is observed for 2 hours, in the presence or absence of trembling. The rectal temperature is measured every 30 minutes for 2 hours, after administration of oxotremorine.

rats [7] = test: Study of the stereotypies in rats; format: in vivo; conditions: rats
Procedure: Study of the stereotypies in rats
as §1

## CC1CC(c2ccc(Cl)cc2)C(c2ccccc2)C(=O)O1 (stereo not drawn) [100% of β, Trans-4-(4'-chlorophenyl)-6-methyl-3phenyl-3,4,5,6-tetrahydropyrone-2, IIIβ]
Mice [1]
  activity compared with the mixture of 80 % of α and 20 % of β: more active

## O=c1[nH]c2ccccc2n1C1CCN(CCCC(c2ccc(F)cc2)c2ccc(F)cc2)CC1 [pimozide, reference compound]
Rats [2]
  effect of pimozide on the stereotypies caused by the medicament: very significantly antagonizes the stereotypies

## CC(O)CC(c1ccc(Cl)cc1)C(C(=O)O)c1ccccc1 (stereo not shown) [product IV, sodium salt of 3-(4'-chlorophenyl)-5-hydroxy-2-phenylhexanoic acid]
Mice [3]; 8 mg/kg oral, 30 min
  Rectal temperatures °C. ± SD: 30.9 ± 0.36 °C
Mice [3]; 8 mg/kg oral, 60 min
  Rectal temperatures °C. ± SD: 32.0 ± 0.56 °C
Mice [3]; 8 mg/kg oral, 90 min
  Rectal temperatures °C. ± SD: 32.2 ± 0.57 °C
Mice [3]; 8 mg/kg oral, 120 min
  Rectal temperatures °C. ± SD: 33.2 ± 0.56 °C
Mice [3]; 16 mg/kg oral, 30 min
  Rectal temperatures °C. ± SD: 31.1 ± 0.39 °C
Mice [3]; 16 mg/kg oral, 60 min
  Rectal temperatures °C. ± SD: 32.5 ± 0.60 °C
Mice [3]; 16 mg/kg oral, 90 min
  Rectal temperatures °C. ± SD: 32.7 ± 0.51 °C
Mice [3]; 16 mg/kg oral, 120 min
  Rectal temperatures °C. ± SD: 33.1 ± 0.43 °C
Mice [3]; 32 mg/kg oral, 30 min
  Rectal temperatures °C. ± SD: 31.3 ± 0.31 °C
Mice [3]; 32 mg/kg oral, 60 min
  Rectal temperatures °C. ± SD: 33.0 ± 0.44 °C
Mice [3]; 32 mg/kg oral, 90 min
  Rectal temperatures °C. ± SD: 33.7 ± 0.41 °C
Mice [3]; 32 mg/kg oral, 120 min
  Rectal temperatures °C. ± SD: 33.2 ± 0.38 °C
Mice [3]; 64 mg/kg oral, 30 min
  Rectal temperatures °C. ± SD: 32.8 ± 0.40 °C
Mice [3]; 64 mg/kg oral, 60 min
  Rectal temperatures °C. ± SD: 34.3 ± 0.32 °C
Mice [3]; 64 mg/kg oral, 90 min
  Rectal temperatures °C. ± SD: 34.5 ± 0.38 °C
Mice [3]; 64 mg/kg oral, 120 min
  Rectal temperatures °C. ± SD: 34.4 ± 0.41 °C
Mice [4]; Table Vb, 2 mg/kg administered orally, 4 hours
  Mortality in % after the administration of yohimbine: 10%
Mice [4]; Table Vb, 2 mg/kg administered orally, 24 hours
  Mortality in % after the administration of yohimbine: 10%
Mice [4]; Table Vb, 4 mg/kg administered orally, 4 hours
  Mortality in % after the administration of yohimbine: 20%
Mice [4]; Table Vb, 4 mg/kg administered orally, 24 hours
  Mortality in % after the administration of yohimbine: 20%
Mice [4]; Table Vb, 8 mg/kg administered orally, 4 hours
  Mortality in % after the administration of yohimbine: 30%
Mice [4]; Table Vb, 8 mg/kg administered orally, 24 hours
  Mortality in % after the administration of yohimbine: 30%
Mice [4]; Table Vb, 16 mg/kg administered orally, 4 hours
  Mortality in % after the administration of yohimbine: 70%
Mice [4]; Table Vb, 16 mg/kg administered orally, 24 hours
  Mortality in % after the administration of yohimbine: 70%
Mice [4]; Table Vb, 32 mg/kg administered orally, 4 hours
  Mortality in % after the administration of yohimbine: 80%
Mice [4]; Table Vb, 32 mg/kg administered orally, 24 hours
  Mortality in % after the administration of yohimbine: 80%
Mice [4]; Table Vb, 64 mg/kg administered orally, 4 hours
  Mortality in % after the administration of yohimbine: 100%
Mice [4]; Table Vb, 64 mg/kg administered orally, 24 hours
  Mortality in % after the administration of yohimbine: 100%
Mice [4]; Table Vb, 128 mg/kg administered orally, 4 hours
  Mortality in % after the administration of yohimbine: 80%
Mice [4]; Table Vb, 128 mg/kg administered orally, 24 hours
  Mortality in % after the administration of yohimbine: 80%
Mice [4]; Table Vb, 256 mg/kg administered orally, 4 hours
  Mortality in % after the administration of yohimbine: 100%
Mice [4]; Table Vb, 256 mg/kg administered orally, 24 hours
  Mortality in % after the administration of yohimbine: 100%
[5]; ip, intraperitoneal, read-out: LD50 (intraperitoneal administration)
  LD50: 160 mg/kg
[5]; oral, read-out: LD50 (oral administration)
  LD50: 310 mg/kg

## Threo-2-(4'-chlorophenyl)-4-hydroxy-1-phenylpentanecarbonitrile [Example II]
Mice [4]; Table Va, 2 mg/kg oral, 4 hours
  Mortality in % after the administration of yohimbine: 0%
Mice [4]; Table Va, 2 mg/kg oral, 24 hours
  Mortality in % after the administration of yohimbine: 0%
Mice [4]; Table Va, 4 mg/kg oral, 4 hours
  Mortality in % after the administration of yohimbine: 0%
Mice [4]; Table Va, 4 mg/kg oral, 24 hours
  Mortality in % after the administration of yohimbine: 0%
Mice [4]; Table Va, 8 mg/kg oral, 4 hours
  Mortality in % after the administration of yohimbine: 10%
Mice [4]; Table Va, 8 mg/kg oral, 24 hours
  Mortality in % after the administration of yohimbine: 10%
Mice [4]; Table Va, 16 mg/kg oral, 4 hours
  Mortality in % after the administration of yohimbine: 20%
Mice [4]; Table Va, 16 mg/kg oral, 24 hours
  Mortality in % after the administration of yohimbine: 20%
Mice [4]; Table Va, 32 mg/kg oral, 4 hours
  Mortality in % after the administration of yohimbine: 25%
Mice [4]; Table Va, 32 mg/kg oral, 24 hours
  Mortality in % after the administration of yohimbine: 25%
Mice [4]; Table Va, 64 mg/kg oral, 4 hours
  Mortality in % after the administration of yohimbine: 30%
Mice [4]; Table Va, 64 mg/kg oral, 24 hours
  Mortality in % after the administration of yohimbine: 30%
Mice [4]; Table Va, 128 mg/kg oral, 4 hours
  Mortality in % after the administration of yohimbine: 60%
Mice [4]; Table Va, 128 mg/kg oral, 24 hours
  Mortality in % after the administration of yohimbine: 60%
Mice [4]; Table Va, 256 mg/kg oral, 4 hours
  Mortality in % after the administration of yohimbine: 70%
Mice [4]; Table Va, 256 mg/kg oral, 24 hours
  Mortality in % after the administration of yohimbine: 70%
Mice [6]
  trembling and peripheral symptoms caused by oxotremorine: did not cause any modification
Rats [7]; figure
  stereotypy activity, oral versus intraperitoneal administration: slightly greater on oral administration
Rats [7]; mean surface area of the curve (figure)
  dose from which very significant stereotypies are present: ≥ 8 mg/kg
